# Patent publication US7256286B2, “Bryostatin analogues, synthetic methods and uses” (The Board of Trustees of the Leland Stanford Junior …, priority 1999, dated 2007)
# Experiments:
# Format in all cases: cell-based
# RPMI-8226 = test: NCI human cancer cell line growth inhibition: RPMI-8226; conditions: RPMI-8226, Leukemia
# SW-620 = test: NCI human cancer cell line growth inhibition: SW-620; conditions: SW-620, Colon
# UACC-257 = test: NCI human cancer cell line growth inhibition: UACC-257; conditions: UACC-257, Melanoma
# IGROVI = test: NCI human cancer cell line growth inhibition: IGROVI; conditions: Ovarian
# DU-145 = test: NCI human cancer cell line growth inhibition: DU-145; conditions: DU-145, Prostate
# HT29 = test: NCI human cancer cell line growth inhibition: HT29; conditions: HT29, Colon
# OVCAR-3 = test: NCI human cancer cell line growth inhibition: OVCAR-3; conditions: OVCAR-3, Ovarian
# ACHN = test: NCI human cancer cell line growth inhibition: ACHN; conditions: Renal
# SNB-75 = test: NCI human cancer cell line growth inhibition: SNB-75; conditions: SNB-75, CNS
# SNB-19 = test: NCI human cancer cell line growth inhibition: SNB-19; conditions: SNB-19, CNS
# CAKI-1 = test: NCI human cancer cell line growth inhibition: CAKI-1; conditions: CAKI-1, Renal
# SK-MEL-5 = test: NCI human cancer cell line growth inhibition: SK-MEL-5; conditions: SK-MEL-5, Melanoma
# SR = test: NCI human cancer cell line growth inhibition: SR; conditions: Leukemia
# HOP-92 = test: NCI human cancer cell line growth inhibition: HOP-92; conditions: HOP-92, NSC Lung
# SF-295 = test: NCI human cancer cell line growth inhibition: SF-295; conditions: SF-295, CNS
# P388 cell line = test: P388 murine lymphocytic leukemia cell assay
# Description: Cells from a P388 cell line (CellGate, Inc., Sunnyvale, Calif.) are grown in RPMI 1640 cell medium containing fetal calf serum (10%), L-glutamine, penicillin, streptomycin and are split twice weekly. All compounds are first diluted with DMSO. Later serial dilutions are done with a phosphate buffer solution (HYQ DPBS modified phosphate buffered saline). All dilutions are done in glass vials and the final DMSO concentration is always below 0.5% by volume. Final two-fold dilutions are done in a 96 well plate using cell media so that each well contains 50 μL. All compounds are assayed in quadruplicate over 12 concentrations. Cell concentration is measured using a hemacytometer and the final cell concentration is adjusted to 1×10^4 cells/mL with cell medium. The resulting solution of cells (50 μL) is then added to each well and the plates are incubated for 5 days in a 37° C., 5% CO2, humidified incubator (Sanyo CO2 incubator). MTT solution (3-[4,5-dimethylthiazol-2-yl]-2,5-diphenyltetrazolium bromide, 10 μL) is then added to each well and the plates are re-incubated under identical conditions for 2 h. To each well is then added acidified isopropanol (150 μL of i-PrOH solution containing 0.05 N HCl) and mixed thoroughly. The plates are then scanned at 595 nm and the absorbances are read (Wallac Victor 1420 Multilabel Counter). The resulting data is then analyzed to determine an ED50 value using the Prism software package (GraphPad).
# MCF7 = test: NCI human cancer cell line growth inhibition: MCF7; conditions: MCF7, Breast
# KM12 = test: NCI human cancer cell line growth inhibition: KM12; conditions: KM12, Colon
# A549/ATCC = test: NCI human cancer cell line growth inhibition: A549/ATCC; conditions: NSC Lung
# U251 = test: NCI human cancer cell line growth inhibition: U251; conditions: U251, CNS
# MI4 = test: NCI human cancer cell line growth inhibition: MI4; conditions: MI4, Melanoma
# HS 578T = test: NCI human cancer cell line growth inhibition: HS 578T; conditions: Breast
# MOLT-4 = test: NCI human cancer cell line growth inhibition: MOLT-4; conditions: MOLT-4, Leukemia
smiles,measurement,setting,value
CCCCCCCC(=O)O[C@H]1/C(=C/C(=O)OC)C[C@H]2C[C@H](CO)OC(=O)C[C@H](O)C[C@@H]3CCCC(CC4CCO[C@H](/C=C/C(C)(C)[C@]1(O)O2)O4)O3 [Formula IIa (702.1)],GI50,RPMI-8226; Homo sapiens,1.51 µM
same,Difference (GI50 desmethyl vs Bryo-1),RPMI-8226,−0.82
same,GI50,SW-620; Homo sapiens,7.59 µM
same,Difference (GI50 desmethyl vs Bryo-1),SW-620,0.38
same,GI50,UACC-257; Homo sapiens,7.41 µM
same,Difference (GI50 desmethyl vs Bryo-1),UACC-257,−0.03
same,GI50,IGROVI; Homo sapiens,13.2 µM
same,Difference (GI50 desmethyl vs Bryo-1),IGROVI,0.42
same,Difference (GI50 desmethyl vs Bryo-1),DU-145,−0.02
same,GI50,DU-145; Homo sapiens,9.55 µM
same,Difference (GI50 desmethyl vs Bryo-1),HT29,−0.25
same,GI50,"HT29; Homo sapiens, HT-29",2.82 µM
same,GI50,OVCAR-3; Homo sapiens,14.8 µM
same,Difference (GI50 desmethyl vs Bryo-1),OVCAR-3,0.27
same,GI50,ACHN; Homo sapiens,1.15 µM
same,Difference (GI50 desmethyl vs Bryo-1),ACHN,−0.44
same,GI50,SNB-75; Homo sapiens,10.7 µM
same,Difference (GI50 desmethyl vs Bryo-1),SNB-75,0.53
same,GI50,SNB-19; Homo sapiens,6.31 µM
same,Difference (GI50 desmethyl vs Bryo-1),SNB-19,−0.20
same,Difference (GI50 desmethyl vs Bryo-1),CAKI-1,−0.30
same,GI50,CAKI-1; Homo sapiens,2 µM
same,GI50,SK-MEL-5; Homo sapiens,0.372 µM
same,Difference (GI50 desmethyl vs Bryo-1),SK-MEL-5,−0.73
same,GI50,SR; Homo sapiens,7.94 µM
same,Difference (GI50 desmethyl vs Bryo-1),SR,−0.10
same,Difference (GI50 desmethyl vs Bryo-1),HOP-92,0.63
same,GI50,HOP-92; Homo sapiens,21.4 µM
same,GI50,SF-295; Homo sapiens,0.891 µM
same,Difference (GI50 desmethyl vs Bryo-1),SF-295,−0.85
same,activity in P388 assay compared with other analogues,"P388 cell line; 702.1 vs corresponding C26 methyl-containing analogue, 48, 49 among C20 ester analogues",significantly higher activity
same,EC50,"P388 cell line; Mus musculus, P388, 120 h, 5 days incubation, MTT, read-out: P388 Assay ED50",0.017 µM
same,GI50,MCF7; Homo sapiens,3.98 µM
same,Difference (GI50 desmethyl vs Bryo-1),MCF7,−0.20
same,GI50,KM12; Homo sapiens,4.57 µM
same,Difference (GI50 desmethyl vs Bryo-1),KM12,−0.14
same,GI50,A549/ATCC; Homo sapiens,0.24 µM
same,Difference (GI50 desmethyl vs Bryo-1),A549/ATCC,−1.42
same,GI50,"U251; Homo sapiens, U-251",3.98 µM
same,Difference (GI50 desmethyl vs Bryo-1),U251,−0.30
same,GI50,MI4; Homo sapiens,5.5 µM
same,Difference (GI50 desmethyl vs Bryo-1),MI4,−0.26
same,Difference (GI50 desmethyl vs Bryo-1),HS 578T,0.02
same,GI50,HS 578T; Homo sapiens,6.61 µM
same,GI50,MOLT-4; Homo sapiens,< 0.01 µM
same,Difference (GI50 desmethyl vs Bryo-1),MOLT-4,−2.50
same,more active than bryostatin-1 by,MOLT-4,more than 2 orders of magnitude
